Laboratory results as given in US8187825B2, “Thiol detection method” (Riken, priority 2008, dated 2012).

How the values were obtained:
[1] = Reactivity of probe with thiol (fluorescence intensity at 522 nm); settings: 1 μM probe, 37° C., 30 minutes, 50 mM Tris-HCl pH 7.4
Experimental: The reactivity of the probe (compound 2) with several types of thiols was examined by measuring an increase in the fluorescence intensity at 522 nm. The reaction was carried out using the 1 μM probe and 1 mM thiol at 37° C. for 30 minutes in 50 mM Tris-HCl (pH 7.4).
In addition, as a comparative example, a compound represented by the following formula (3) was used as a probe, and its reactivity was examined in the same above manner:
After addition of thiol, the solution was incubated at 37° C. for 30 minutes. The fluorescence at 522 nm was monitored by excitation at 490 nm. “3′-thio dT” indicates 3′-phosphorothioate-2′-deoxythymidine; “DTT” indicates dithiothreitol; “GSH” indicates glutathione; “L-Gly” indicates L-glycine; and “Vc” indicates ascorbic acid.

[2] = Fluorescence measurement in solution with GSH; settings: 100 nM probe
Experimental: The 100 nM probe (compound 4) was allowed to react with 10 mM GSH in 50 mM Tris-HCl (pH 7.4) at 37° C. for 30 minutes. Thereafter, the fluorescence intensity was measured using a fluorescence spectrometer (FP-6500; JASCO) (excitation wavelength: 540 nm).

HL60 = experiment: Flow cytometry of HL60 cells; format: cell-based; settings: 100 μM probe, 37° C., 15 minutes; control pre-treated with 1 mM N-methylmaleimide 30 minutes
Experimental: The 100 μM probe (compound 4) was added to HL60, and the mixture was then reacted at 37° C. for 15 minutes. Thereafter, a measurement was then carried out by flow cytometry. 1 mM N-methylmaleimide (N-MMI) used as a thiol-blocking agent was added to HL60, and the obtained mixture was then reacted at 37° C. for 30 minutes. Thereafter, the 100 μM probe was added to the reaction product, and the obtained mixture was reacted at 37° C. for 15 minutes. Thereafter, the measurement was carried out by flow cytometry.

[3] = cited from earlier work
[4] = Fluorescence measurement of probe with cysteine; settings: 100 nM probe
Experimental: The reaction was carried out using the 100 nM probe (compound 2) and 10 mM cysteine at 37° C. for 30 minutes in 50 mM Tris-HCl (pH 7.4). A fluorescence spectrum was obtained with a fluorescence spectrometer (FP-6500; JASCO). Fluorescence was obtained by excitation at 490 nm at a scanning range of 450 to 650 nm.
Fluorescence was monitored by excitation at 490 nm.

[5] = Stability of probe on heating in Tris buffer; format: physicochemical; settings: 55° C. for 24 hours in 50 mM Tris buffer (pH 7.4)
HeLa cells = experiment: Fluorescence microscope observation of living HeLa cells; format: cell-based
Experimental: HeLa cells were allowed to grow at 37° C. in a 5% CO2 atmosphere in MEM in order to use them for a test with living cells. The cells were incubated at 37° C. for 15 minutes in the presence of the 25 μM probe (compound 2) (1:100 DMSO/PBS(−), v/v). As a control experiment, the cells were treated with 1 mM N-methylmaleimide in PBS(−) at 37° C. for 60 minutes, and the resultant cells were then washed with a PBS(−) buffer three times. Thereafter, the cells were incubated at 37° C. for 15 minutes in the presence of the 25 μM probe (1:100 DMSO/PBS(−), v/v).
The fluorescence image was obtained using a digital camera (Cool Snap HQ; Roper Scientific) and imaging software (MetaMorph; Molecular Devices), under a fluorescence microscope equipped with a mercury lamp (Axiovert 200M; Carl Zeiss). The conditions of the microscope were determined as follows. Excitation: 470/40 bandpass filter; light emission: 525/50 bandpass filter; and irradiation time: 300 msec.
(a, b): a control image of the cells, which were pre-treated with N-methylmaleimide (1 mM) at 37° C. for 60 minutes and were then incubated together with the probe (25 μM) at 37° C. for 15 minutes; (c, d): an image of the cells, which were incubated together with the probe (25 μM) at 37° C. for 15 minutes; (a, c) a bright-field image; (b, d) a fluorescent image. The conditions of the microscope were determined as follows. Excitation: 470/40 bandpass filter; light emission: 525/50 bandpass filter; and irradiation time: 300 msec.

Structure (SMILES): O=C1OC2(c3ccc(NS(=O)(=O)c4ccc([N+](=O)[O-])cc4)cc3Oc3cc(NS(=O)(=O)c4ccc([N+](=O)[O-])cc4)ccc32)c2ccccc21 [formula (3), reference compound]
- increase in fluorescence intensity at 522 nm ([1]; 1 mM phosphorothioate (3′-thio dT)): approximately 950 times
- reaction with other thiol groups ([1]; 1 mM thiols other than phosphorothioate): did not react with other thiol groups

Structure (SMILES): Nc1ccc2nc3c4ccccc4/c(=N\S(=O)(=O)c4ccc([N+](=O)[O-])cc4[N+](=O)[O-])cc-3oc2c1 [compound 4]
- fluorescence intensity at 620 nm after reaction with GSH ([2]; 10 mM GSH, 37° C., 30 minutes, 50 mM Tris-HCl pH 7.4, excitation 540 nm): an increase in the fluorescence intensity was observed
- fluorescence of the probe as a single body (without GSH) ([2]; excitation 540 nm, 50 mM Tris-HCl pH 7.4): generated no fluorescence
- fluorescence intensity of HL60 cells (−N-MMI) versus HL60 cells (+N-MMI) (HL60): higher

Structure (SMILES): OCCS [2-mercaptoethanol]
- pKa value [3]: 9.5

Structure (SMILES): O=C1OC2(c3ccc(NS(=O)(=O)c4ccc([N+](=O)[O-])cc4[N+](=O)[O-])cc3Oc3cc(NS(=O)(=O)c4ccc([N+](=O)[O-])cc4[N+](=O)[O-])ccc32)c2ccccc21 [compound 2]
- increase in fluorescence intensity around 520 nm after addition of cysteine (factor) ([4]; 10 mM cysteine, 50 mM Tris-HCl pH 7.4, 37° C., 30 minutes, excitation 490 nm): approximately 3500
- fluorescence of the probe without cysteine ([4]; no cysteine, 50 mM Tris-HCl pH 7.4, excitation 490 nm): no significant fluorescence was observed
- increase in fluorescence intensity at 522 nm ([1]; 1 mM 2-mercaptoethanol (ME)): 11 times
- activity on other biological substances (selectivity) ([1]; glycine, ascorbic acid, or hydrogen peroxide): did not exhibit activity
- stability: fluorescence signal after heating [5]: no increase in the fluorescence signal was detected
- fluorescence signal of cells pre-treated with thiol-blocking agent (HeLa cells; HeLa cells pre-treated with 1 mM N-methylmaleimide 60 minutes, then 25 μM probe 15 minutes): no fluorescence signal was observed
- permeation into cells (HeLa cells; HeLa cells, 25 μM probe): permeates into the cell membrane
- fluorescence signal of cells (HeLa cells; HeLa cells, 25 μM probe, 15 minutes, 37° C.): significant fluorescence signal
